Data taken from EP4603105A1, “PHARMACEUTICAL COMPOSITION CONTAINING CYCLIC COMPOUND HAVING SELECTIVE KRAS INHIBITORY EFFECT AGAINST HRAS AND NRAS” (CHUGAI SEIYAKU KABUSHIKI KAISHA, priority 2022, dated 2024).
pIC50, pKd: −log10 of the molar value. Like-named read-outs stand apart in the source and are kept apart here.

How the values were obtained:
[1] = biological target: GDP-bound NRAS wild-type protein (Homo sapiens, UniProt P01111); experiment: Binding to NRAS by surface plasmon resonance (SPR), KD and KD ratio to KRAS
Sequence of GDP-bound NRAS wild-type protein (P01111 whole entry): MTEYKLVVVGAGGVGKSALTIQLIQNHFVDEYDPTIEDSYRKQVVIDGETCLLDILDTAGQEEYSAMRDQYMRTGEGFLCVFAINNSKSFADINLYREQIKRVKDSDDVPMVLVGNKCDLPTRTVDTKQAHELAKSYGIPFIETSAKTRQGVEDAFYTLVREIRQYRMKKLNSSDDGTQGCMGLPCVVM
In short: (§1)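 Each cycle, GDP-bound biotin-Avi RAS was captured (~100–300 RU), compound concentrations were injected low to high for 75 s each at 100 µL/min, then the chip was regenerated. Buffer: HBS pH 7.4, 10 mM MgCl2, 10 µM GDP, 1 mM DTT, 4% DMSO; 30°C. KD from a 1:1 binding model.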

[2] = test system: human lung cancer strain NCI-H441; experiment: NCI-H441 cell proliferation inhibitory activity (CellTiter-Glo, 4 days); format: cell-based; conditions: read-out: NCl-H441 IC50
In short: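 Signal came from […] measured per well once the reagent was added. Beforehand, cells were cultured at 37°C and 5% carbon dioxide on a compound series serially diluted in dimethyl sulfoxide.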

[3] = biological target: GDP-bound KRAS wild-type protein (Homo sapiens, UniProt P01116); experiment: Binding to KRAS by surface plasmon resonance (SPR), dissociation constant KD
Sequence of GDP-bound KRAS wild-type protein (P01116 1-188 isoform P01116-2): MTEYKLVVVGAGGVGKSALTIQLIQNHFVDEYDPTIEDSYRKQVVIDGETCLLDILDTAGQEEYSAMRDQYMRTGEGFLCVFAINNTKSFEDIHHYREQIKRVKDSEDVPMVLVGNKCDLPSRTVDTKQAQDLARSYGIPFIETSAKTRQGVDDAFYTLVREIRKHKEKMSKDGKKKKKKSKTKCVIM
In short: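 Captured GDP-RAS (~100–300 RU) was exposed to increasing compound concentrations, 75 s per step, in running buffer with 10 µM GDP, 10 mM MgCl2 and 4% DMSO at pH 7.4.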

HRAS wild-type protein = HRAS wild-type protein (Homo sapiens, UniProt P01112); experiment: Binding to HRAS by surface plasmon resonance (SPR), KD and KD ratio to KRAS
Sequence of HRAS wild-type protein (P01112 whole entry): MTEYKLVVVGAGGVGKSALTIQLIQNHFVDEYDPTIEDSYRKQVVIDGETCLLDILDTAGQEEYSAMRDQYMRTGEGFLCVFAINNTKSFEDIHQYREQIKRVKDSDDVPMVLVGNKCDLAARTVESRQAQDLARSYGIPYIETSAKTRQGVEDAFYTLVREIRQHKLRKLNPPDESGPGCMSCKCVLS
In short: as §1

[4] = ratio of KD for GDP-bound NRAS wild-type protein to KD for KRAS
[5] = ratio of KD for HRAS wild-type protein to KD for KRAS
[6] = ratio of KD with respect to GDP-bound NRAS wild-type protein to KD with respect to KRAS
[7] = 50% proliferation inhibitory concentration, four days
[8] = Single Cycle Kinetics, 1:1 binding model
[9] = ratio of KD with respect to HRAS wild-type protein to KD with respect to KRAS

SMILES: CCOC[C@H]1C(=O)N[C@@H]([C@@H](C)CC)C(=O)N(C)CC(=O)N(C)[C@H]2C/C=C\CCN(C2=O)[C@@H](CC2CCC(F)(F)CC2)C(=O)N(C)CC(=O)N[C@@H](CCc2cc(F)c(C(F)(F)F)c(F)c2)C(=O)N2C[C@H](OCC)C[C@H]2C(=O)NC2(CC(C)(C)C2)C(=O)N(C)[C@@H](C(CC)CC)C(=O)N(C)[C@H](C(=O)N(C)C)CC(=O)N1C [PP2450]
- NRAS /KRAS [1, 4]: A (a compound having 10 or more and less than 20 is denoted as A)
- pIC50 ([2]; NCI-H441 cells, 4 days): 7.53
- pKd ([3]; 1:1 binding model): 9.26
- HRAS /KRAS (HRAS wild-type protein; [5]): A (a compound having 10 or more and less than 20 is denoted as A)

SMILES: CC[C@H](C)[C@@H]1NC(=O)[C@H](CC)N(C)C(=O)C[C@@H](C(=O)N(C)C)N(C)C(=O)[C@H](C2CCCC2)N(C)C(=O)C2(CCC2)NC(=O)[C@@H]2CCCN2C(=O)[C@H](CCc2cc(F)c(C(F)(F)F)c(F)c2)NC(=O)CN(C)C(=O)[C@H](CC2CCCCC2)N2CC/C=C\C[C@@H](C2=O)N(C)C(=O)CN(C)C1=O [PP1475]
- NRAS /KRAS [1, 6]: A (a compound having 10 or more and less than 20 is denoted as A)
- pIC50 [2, 7]: 7.31
- pKd [3, 8]: 9.26
- HRAS /KRAS (HRAS wild-type protein; [9]): A (a compound having 10 or more and less than 20 is denoted as A)

SMILES: CCC[C@H]1C(=O)N[C@@H]([C@@H](C)CC)C(=O)N(C2CC2)CC(=O)N(C)[C@H]2C/C=C\CCN(C2=O)[C@@H](Cc2ccc(C)cc2)C(=O)N(C)CC(=O)N[C@@H](CCc2ccc(Cl)c(Cl)c2)C(=O)N2C[C@H](OCC)C[C@H]2C(=O)NC2(CC(C)(C)C2)C(=O)N(C)[C@@H](CC(C)(C)C)C(=O)N(C)[C@H](C(=O)N(C)C)CC(=O)N1C [PP2726]
- NRAS /KRAS [1, 4]: AA (a compound having 20 or more is denoted as AA)
- pIC50 ([2]; NCI-H441 cells, 4 days): 7.29
- pKd ([3]; 1:1 binding model): 8.96
- HRAS /KRAS (HRAS wild-type protein; [5]): A (a compound having 10 or more and less than 20 is denoted as A)

SMILES: C#CC[C@H]1C(=O)N[C@@H]([C@@H](C)CC)C(=O)N(C2CC2)CC(=O)N(C)[C@H]2C/C=C\CCN(C2=O)[C@@H](Cc2ccc(C(F)(F)F)cc2)C(=O)N(C)CC(=O)N[C@@H](CCc2ccc(C(F)(F)F)c(Cl)c2)C(=O)N2C[C@H](OCC)C[C@H]2C(=O)N(C)C2(CCC2)C(=O)N(C)[C@@H](C2CCCC2)C(=O)N(C)[C@H](C(=O)N(C)C)CC(=O)N1C [PP3246]
- NRAS /KRAS [1, 4]: A (a compound having 10 or more and less than 20 is denoted as A)
- pIC50 ([2]; NCI-H441 cells, 4 days): 8.42
- pKd ([3]; Single Cycle Kinetics): 10.07
- HRAS /KRAS (HRAS wild-type protein; [5]): A (a compound having 10 or more and less than 20 is denoted as A)

SMILES: CCC[C@H]1C(=O)N[C@@H]([C@@H](C)CC)C(=O)N(C2CC2)CC(=O)N(C)[C@H]2C/C=C\CCN(C2=O)[C@@H](CC2CCC(F)(F)CC2)C(=O)N(C)CC(=O)N[C@@H](CCc2ccc(Cl)c(Cl)c2)C(=O)N2C[C@H](OCC)C[C@H]2C(=O)NC2(CC(C)(C)C2)C(=O)N(C)[C@@H](C2CCCC2)C(=O)N(C)[C@H](C(=O)N(C)C)CC(=O)N1C [PP2567]
- NRAS /KRAS [1, 4]: A (a compound having 10 or more and less than 20 is denoted as A)
- pIC50 ([2]; NCI-H441 cells, 4 days): 6.99
- pKd ([3]; 1:1 binding model): 8.72
- HRAS /KRAS (HRAS wild-type protein; [5]): A (a compound having 10 or more and less than 20 is denoted as A)

SMILES: CCO[C@@H]1C[C@H]2C(=O)NC3(CCC3)C(=O)N(C)[C@@H](C3CCCC3)C(=O)N(C)[C@H](C(=O)N3CCOCC3)CC(=O)N(C)[C@@H](CC3CCC3)C(=O)N[C@@H]([C@@H](C)CC)C(=O)N(C)CC(=O)N(C)[C@H]3C/C=C\CCN(C3=O)[C@@H](Cc3ccc(C(F)(F)F)cc3)C(=O)N(C)CC(=O)N[C@@H](CCc3cc(F)c(C(F)(F)F)c(F)c3)C(=O)N2C1 [PP1422]
- NRAS /KRAS [1, 6]: AA (a compound having 20 or more is denoted as AA)
- pIC50 [2, 7]: 7.85
- pKd [3, 8]: 9.66
- HRAS /KRAS (HRAS wild-type protein; [9]): A (a compound having 10 or more and less than 20 is denoted as A)

SMILES: CCO[C@@H]1C[C@H]2C(=O)NC3(CCC3)C(=O)N(C)[C@@H](C3CCCC3)C(=O)N(C)[C@H](C(=O)N(C)C)CC(=O)N(C)[C@@H](Cc3cccc(C#N)c3)C(=O)N[C@@H]([C@@H](C)CC)C(=O)N(C)CC(=O)N(C)[C@H]3CCCCCN(C3=O)[C@@H](Cc3ccc(C(F)(F)F)cc3)C(=O)N(C)CC(=O)N[C@@H](CCc3cc(F)c(C(F)(F)F)c(F)c3)C(=O)N2C1 [PP1172]
- NRAS /KRAS [1, 6]: B (a compound having 3 or more and less than 10 is denoted as B)
- pIC50 [2, 7]: 7.32
- pKd [3, 8]: 9.77
- HRAS /KRAS (HRAS wild-type protein; [9]): B (a compound having 3 or more and less than 10 is denoted as B)

SMILES: CCO[C@@H]1C[C@H]2C(=O)NC3(CC(C)(C)C3)C(=O)N(C)[C@@H](C3CCCC3)C(=O)N(C)[C@H](C(=O)N(C)C)CC(=O)N(C)[C@@H]([C@H](C)OC)C(=O)N[C@@H]([C@@H](C)CC)C(=O)N(C)CC(=O)N(C)[C@H]3C/C=C\CCN(C3=O)[C@@H](Cc3ccc(C(F)(F)F)cc3)C(=O)N(C)CC(=O)N[C@@H](CCc3ccc(C(F)(F)F)c(OC)c3)C(=O)N2C1 [PP3167]
- NRAS /KRAS [1, 4]: B (a compound having 3 or more and less than 10 is denoted as B)
- pIC50 ([2]; NCI-H441 cells, 4 days): 8.01
- pKd ([3]; Single Cycle Kinetics): 10.00
- HRAS /KRAS (HRAS wild-type protein; [5]): A (a compound having 10 or more and less than 20 is denoted as A)

SMILES: CCC[C@H]1C(=O)N[C@@H](C2CCCC2)C(=O)N(C)CC(=O)N(C)[C@H]2C/C=C\CCN(C2=O)[C@@H](Cc2ccc(C)cc2)C(=O)N(C)CC(=O)N[C@@H](CCc2ccc(C(F)(F)F)c(OC)c2)C(=O)N2CC3(CC3)C[C@H]2C(=O)NC2(CCC2)C(=O)N(C)[C@@H](C(CC)CC)C(=O)N(C)[C@H](C(=O)N(C)C)CC(=O)N1C [PP3430]
- NRAS /KRAS [1, 4]: AA (a compound having 20 or more is denoted as AA)
- pIC50 ([2]; NCI-H441 cells, 4 days): 7.53
- pKd ([3]; Single Cycle Kinetics): 9.15
- HRAS /KRAS (HRAS wild-type protein; [5]): A (a compound having 10 or more and less than 20 is denoted as A)

SMILES: CCO[C@@H]1C[C@H]2C(=O)NC3(CCC3)C(=O)N(C)[C@@H](C(CC)CC)C(=O)N(C)[C@H](C(=O)N(C)C)CC(=O)N(C)[C@@H](CC3CC3)C(=O)N[C@@H]([C@@H](C)CC)C(=O)N(C)CC(=O)N(C)[C@H]3C/C=C\CCN(C3=O)[C@@H](Cc3ccc(C(F)(F)F)cc3)C(=O)N(C)CC(=O)N[C@@H](CCc3ccc(C(F)(F)F)c(OC)c3)C(=O)N2C1 [PP1211]
- NRAS /KRAS [1, 6]: A (a compound having 10 or more and less than 20 is denoted as A)
- pIC50 [2, 7]: 7.57
- pKd [3, 8]: 9.57
- HRAS /KRAS (HRAS wild-type protein; [9]): B (a compound having 3 or more and less than 10 is denoted as B)

SMILES: CCOC[C@H]1C(=O)N[C@@H]([C@@H](C)CC)C(=O)N2CCC[C@H]2C(=O)N(C)[C@H]2C/C=C\CCN(C2=O)[C@@H](Cc2ccc(C(F)(F)F)cc2)C(=O)N(C)CC(=O)N[C@@H](CCc2ccc(C(F)(F)F)c(OC)c2)C(=O)N2C[C@@H](C)C[C@H]2C(=O)N(C)C2(CCC2)C(=O)N(C)[C@@H](C2CCCC2)C(=O)N(C)[C@H](C(=O)N(C)C)CC(=O)N1C [PP2363]
- NRAS /KRAS [1, 4]: A (a compound having 10 or more and less than 20 is denoted as A)
- pIC50 ([2]; NCI-H441 cells, 4 days): 8.12
- pKd ([3]; 1:1 binding model): 10.21
- HRAS /KRAS (HRAS wild-type protein; [5]): B (a compound having 3 or more and less than 10 is denoted as B)

SMILES: CCO[C@@H]1C[C@H]2C(=O)OC3(CCC3)C(=O)N(C)[C@@H](C3CCCC3)C(=O)N(C)[C@H](C(=O)N(C)C)CC(=O)N(C)[C@@H](CC(C)C)C(=O)N[C@@H]([C@@H](C)CC)C(=O)N(C3CC3)CC(=O)N(C)[C@H]3C/C=C\CCN(C3=O)[C@@H](Cc3ccc(C(F)(F)F)cc3)C(=O)N(C)CC(=O)N[C@@H](CCc3ccc(C(F)(F)F)c(OC)c3)C(=O)N2C1 [PP3363]
- NRAS /KRAS [1, 4]: A (a compound having 10 or more and less than 20 is denoted as A)
- pIC50 ([2]; NCI-H441 cells, 4 days): 7.61
- pKd ([3]; Single Cycle Kinetics): 8.74
- HRAS /KRAS (HRAS wild-type protein; [5]): B (a compound having 3 or more and less than 10 is denoted as B)

SMILES: CCC(CC)[C@H]1C(=O)N(C)[C@H](C(=O)N(C)C)CC(=O)N(C)[C@@H](C(C)C)C(=O)N[C@@H]([C@@H](C)CC)C(=O)N(C)CC(=O)N(C)[C@H]2C/C=C\CCN(C2=O)[C@@H](CC2CCC(F)(F)CC2)C(=O)N(C)CC(=O)N[C@@H](CCc2cc(F)c(C(F)(F)F)c(F)c2)C(=O)N2C[C@@H](C)C[C@H]2C(=O)NC2(CC(C)(C)C2)C(=O)N1C [PP2496]
- NRAS /KRAS [1, 4]: A (a compound having 10 or more and less than 20 is denoted as A)
- pIC50 ([2]; NCI-H441 cells, 4 days): 7.01
- pKd ([3]; 1:1 binding model): 8.21
- HRAS /KRAS (HRAS wild-type protein; [5]): A (a compound having 10 or more and less than 20 is denoted as A)

SMILES: CCC[C@H]1C(=O)N[C@@H]([C@@H](C)CC)C(=O)N(C)CC(=O)N(C)[C@H]2C/C=C\CCN(C2=O)[C@@H](Cc2ccc(C(F)(F)F)cc2)C(=O)N(C)CC(=O)N[C@@H](CCc2ccc(C(F)(F)F)c(OC)c2)C(=O)N2C[C@H](OCC)C[C@H]2C(=O)NC2(CCC2)C(=O)N(C)[C@@H](C(CC)CC)C(=O)N(C)[C@H](C(=O)N(C)C)CC(=O)N1C [PP1208]
- NRAS /KRAS [1, 6]: AA (a compound having 20 or more is denoted as AA)
- pIC50 [2, 7]: 7.61
- pKd [3, 8]: 9.77
- HRAS /KRAS (HRAS wild-type protein; [9]): A (a compound having 10 or more and less than 20 is denoted as A)
